The values that follow come from patent publication US7858741B2, “Stabilization of the collagen triple helix by O-methylation of hydroxyproline residues” (Wisconsin Alumni Research Foundation, priority 2008, dated 2010).

Like-named read-outs stand apart in the source and are kept apart here. Marks after values point to notes of the source that are not given here.

For series [1] the following is noted: cited from earlier work.
The conditions of series [2]: cited from earlier work. The source holds these as a separate data set.
The nature of series [3]: Crystal structure conformation (main-chain dihedral angles, n→π* geometry). It is filed as physicochemical. The following applies: crystalline Ac-Mop-OMe. As for the experimental part:
[^13CH3]Ac-Mop-OMe (10 mg) was dissolved in 1:1 CH2Cl2/hexanes (1 mL) and the solution was allowed to stand at room temperature in a loosely-capped vial. Slow evaporation afforded crystals suitable for X-ray analysis after ˜72 h (all solvent had evaporated).
A colorless crystal with approximate dimensions 0.49×0.41×0.23 mm^3 was selected under oil under ambient conditions and attached to the tip of a nylon loop. The crystal was mounted in a stream of cold N2 (g) at 100(2) K and centered in the X-ray beam by using a video camera.
The crystal evaluation and data collection were performed on a Bruker CCD-1000 diffractometer with Mo Kα (λ=0.71073 Å) radiation and the diffractometer-to-crystal distance of 4.9 cm.
The initial cell constants were obtained from three series of scans at different starting angles. Each series consisted of 20 frames collected at intervals of 0.3° in a 6° range about ω with the exposure time of 10 s per frame. A total of 69 reflections were obtained. The reflections were indexed successfully by an automated indexing routine built in the SMART program. The final cell constants were calculated from a set of 4805 strong reflections from the actual data collection.
Data were collected by using the full-sphere data collection routine. The reciprocal space was surveyed to the extent of a full sphere to a resolution of 0.80 Å. A total of 6155 data were harvested by collecting three sets of frames with 0.3° scans in ω and ? with an exposure time 10 s per frame. These highly redundant datasets were corrected for Lorentz and polarization effects. The absorption correction was based on fitting a function to the empirical transmission surface as sampled by multiple equivalent measurements. (Bruker-AXS. (2000-2003) SADABS V.2.05, SAINT V.6.22, SHELXTL V.6.10 & SMART 5.622 Software Reference Manuals. Bruker-AXS, Madison, Wis., USA.)
The systematic absences in the diffraction data were consistent for the space groups P21 and P21/m.
A successful solution by the direct methods provided most non-hydrogen atoms from the E-map. The remaining non-hydrogen atoms were located in an alternating series of least-squares cycles and difference Fourier maps. All non-hydrogen atoms were refined with anisotropic displacement coefficients. All hydrogen atoms were found in the difference map and refined independently. The absolute configuration was assigned from the known synthetic procedure.
The final difference Fourier map was featureless. The molecular diagram is drawn with 50% probability ellipsoids as depicted in FIG. 2.

Series [4] is described as follows: Thermal denaturation of collagen triple helices by circular dichroism (Tm). It is filed as physicochemical. The following applies: for Tm, water / Tm, EG(aq): circular dichroism, peptide 200 μM; for Tm, water: 50 mM HOAc (pH 3.0); for Tm, EG(aq): 2:1 EG/50 mM HOAc (pH 3.0). As for the experimental part:
CD spectra were recorded with an Aviv 202SF circular dichroism spectrometer. Spectra were recorded on peptide solutions (100 μM in 50 mM HOAc (pH 2.9)) that had been incubated at ≦4° C. for ≧48 h in 1-nm increments with a 3-s averaging time, 1-nm bandpass, and 0.1-cm pathlength. Samples for thermal stability experiments were generated by incubating peptide solutions (200 μM) at 4° C. for ≧48 h. The solutions were then heated from 4° C. to 97° C. (for samples in 50 mM HOAc (aq) (pH 2.9)) or to 106° C. (for samples in 2:1 ethylene glycol/50 mM HOAc(aq)) at 3-° C. increments with a 5-min equilibration at each step. The ellipticity at 225 nm was monitored with a 5-s averaging time, 1-nm bandpass, and 0.1-cm pathlength. Values of Tm were determined by fitting the data to a two-state model. (See Becktel and Schellman Biopolymers 26:1859-1877 (1987)).

For series [5] the following is noted: value from Holmgen et al. Nature 392:666-667 (1998); cited from earlier work.
For series [6] the following is noted: cited from earlier work; for ΔG: values from Nishi et al. (2005) (Kobayashi and coworkers); for ΔG / TΔS / ΔH: normalized to T°=71.9° C.; for TΔS / ΔH: values from Nishi et al. (2005).
For series [7] the following is noted: Sakakibara et al. (1973); cited from earlier work.
The conditions of series [8]: compared with (ProProGly)10 chains; Chopra and Ananthanarayanan (1982); cited from earlier work.
Series [9] is described as follows: Differential scanning calorimetry (DSC) of triple-helix unfolding. It is filed as physicochemical. Particulars: for Tm (DSC exotherm maxima): scan rate 15° C./h; for TΔS / ΔG / ΔH: DSC. As for the experimental part: DSC measurements were conducted on a VP-DSC instrument (MicroCal, LLC, Northampton, Mass.). For each peptide, an instrument baseline was established by filling both the sample and the reference cell with degassed 50 mM HOAc(aq) (pH 2.9) and scanning from 5-98° C. at 15° C./h until at least 3 consecutive overlaying scans were observed. The last of these scans was used as the baseline for each subsequent peptide scan.
Peptide solutions (˜0.5 mg/mL in 50 mM HOAc(aq)), incubated at 4° C. for ≧48 h, were degassed and loaded into the sample cell (without removing the reference solution) during the cool down from the final baseline scan (at ˜15° C.). Samples were scanned from 5-98° C. at 15° C./h; the first scan of each sample was used in the analysis. […] Nevertheless, a second run with a fresh sample (incubated at 4° C. for ≧48 h) gave a trace that overlaid with the initial scan for both peptides.
After DSC measurements, peptide concentrations were determined by quantitative amino acid analysis (Scientific Research Consortium, Inc., St. Paul, Minn.). Peptide concentrations of 231 μM for (ProHypGly)10 and 129 μM for (ProMopGly)10 were calculated from the average of Gly and Pro content.
Data processing was done using the MicroCal software in the Origin 7 program (OriginLab Corp., Northampton, Mass.). For each sample, the appropriate reference scan was subtracted from the sample scan and the data were normalized to the monomer concentrations (determined above).
Values of ΔH (per mole of monomer) were obtained by direct integration of the DSC exotherms. Using ΔH and the exotherm maxima as the Tm (64.3° C. for (ProHypGly)10 and 73.8° C. for (ProMopGly)10), TΔS (at Tm) was calculated with the equation: Tm=ΔH/(ΔS+R·1n(0.75c^2)), where c is the concentration of monomeric peptide. (See Engel and Bäichinger P. Top. Curr. Chem. 247:7-33 (2005)). Values of ΔG were then calculated with the equation: ΔG=ΔH−TΔS. […] (See Nishi et. al. (2005)). The data of Kobayashi and coworkers were normalized to T°=71.9° C. (which is the T° for (ProProGly)10, i.e. where ΔG=0). Because our thermodynamic data for (ProMopGly)10 were determined at nearly the same temperature (73.8° C.), comparisons of the three peptides are meaningful.

Where [10] appears, read: mean values from two molecules in ref 18.
The mark [11] stands for this setting: values from Bretscher et al. (2001).
Setting [12] is: mean values for Hyp in 13 (Bella et al. 1994; Miles and Burjanadze 2001).

Regarding `COC(=O)[C@@H]1C[C@@H](F)CN1C(C)=O` [Ac-Flp-OMe], in series [1] (setting [10]), the φ was −55.0 °, the ψ is listed as 140.5 ° and the ω was −178.9 °. Moreover, the Kt/c in series [2] (setting [11]) is 6.7.
For the compound `COC(=O)[C@@H]1C[C@@H](O)CN1C(C)=O` [Ac-Hyp-OMe], in series [1] (setting [10]), the φ was −57.0 °, the ψ is given as 150.8 ° and the ω is given as −178.8 °. For the same compound, the Kt/c in [2] (setting [11]) was 6.1.
In the case of `COC(=O)[C@@H]1C[C@@H](OC)CN1C(C)=O` [Ac-Mop-OMe, N-(2-^13CH3-Acetyl)-(2S,4R)-4-methoxyproline methyl ester], in [3], the φ is −58.1 ± 0.1 °, the ψ turned out to be 147.7 ± 0.1 ° and the ω is on record as −179.7 ± 0.1 °. In addition, in [3] (n→π* interaction), the “Oi-1...C′i=Oi angle” value is 94.6 ° and the “Oi-1...C′i=Oi distance” value is listed as 2.84 Å.
In the case of (ProEopGly)10, the “triple-helix stability compared with Hyp (or Mop)” value in [4] (in water, no value or method printed) is given as “less stable”.
Consider (ProFlpGly)10 [Peptide 3], for which, in [5], the “Tm, water” value is 91^d ° C. Further, in [6], the ΔG is −3.3^c kcal/mol, the TΔS is given as −17.2^c kcal/mol and the ΔH was −20.5^c kcal/mol.
In the case of (ProHypGly)10 [Peptide 1], in [1] (setting [12]), the φ was −59.6 °, the ψ was 149.8 ° and the ω is 178.5 °. In addition, in series [4], the “Tm, water” value was found to be 62.0 °C and the “Tm, EG(aq)” value worked out at 77.1 °C. Moreover, in series [7], the “melting temperature of a triple helix” value was 58 °C. In addition, in [6], the ΔG is −2.0^c kcal/mol, the TΔS is recorded as −33.2^c kcal/mol and the ΔH was −35.2^c kcal/mol. In addition, the ΔG in [6] (listed as (ProHypGly)10) was -2.0 kcal/mol. Also, the “rate at which chains fold into a triple helix” value in series [8] is listed as “substantially greater”. The Kt/c entry in series [2] (Hyp in 13 (triple helix)) is “∞”. The “Tm (DSC exotherm maxima)” value in series [9] (50 mM HOAc) was 64.3 °C. In series [9] (at 64.3° C.), the TΔS was -27.3 kcal/mol, the ΔG was -2.2 kcal/mol and the ΔH was -29.5 kcal/mol.
(ProMopGly)10 [Peptide 2]: the “stability of triple helix compared with triple helical peptide 1” value in series [4] (aqueous ethylene glycol) is “more stable”. In addition, in series [4], the “Tm, water” value came out at 70.1 °C and the “Tm, EG(aq)” value was found to be 89.1 °C. In series [4] (in water (50 mM HOAc)), the “conformational stability of triple helices compared with those of 1” value was “substantially more conformational stability”. Further, in [9] (50 mM HOAc), the “Tm (DSC exotherm maxima)” value amounted to 73.8 °C. Moreover, the TΔS in [9] (at Tm 73.8° C., calculated from ΔH and Tm) was -25.2 kcal/mol. In addition, the ΔH in series [9] (per mole of monomer, 50 mM HOAc, at 73.8° C.) is -27.9 kcal/mol. In series [9] (ΔG=ΔH−TΔS, at 73.8° C.), the ΔG was -2.7 kcal/mol.
Consider (ProProGly)10, for which the “melting temperature of a triple helix” value in series [7] was 24 °C. The “T° (where ΔG=0)” value in [6] (data of Kobayashi and coworkers (Nishi et al. 2005)) was 71.9 °C.
